# Measured values published in patent US20130190289A1, “COMPOUNDS AND METHODS FOR THE TREATMENT OR PREVENTION OF FLAVIVIRUS INFECTIONS” (priority 2010, published 2013).
# Read-outs that look alike come from different tables or passages of the source.
# Legend:
# [1] = system: HCV replicon (genotype 1b) in Huh7 cell line ET; assay: microbe, parasite or virus in culture; format: cell-based, HCV genotype 1b; details: Hepatitis C virus
# [2] = [3H]Thymidine incorporation assay (cell toxicity); details: human
# [3] = Huh-7, read-out: HCV-Replicon-(Luci-ET) 1b_IC50
# [4] = Huh-7, 96 h, read-out: HCV-Replicon (Luci-ET)-1b_IC50
SMILES,"IC50 [1, 3]",CC50 at 72 h [2],"IC50 [1, 4]"
"C[C@@H](CC(=O)N1CCOCC1)N(c1cc(C#CC(C)(C)C)sc1C(=O)O)C(=O)[C@H]1CC[C@H](C)CC1 [Compound 105, 5-(3,3-Dimethylbut-1-ynyl)-3-[(trans-4-methylcyclohexanecarbonyl)-[(1S)-1-methyl-3-morpholino-3-oxo-propyl]amino]thiophene-2-carboxylic acid]",< 0.1 µM,> 100 µM,
"C[C@@H](C(=O)N(C)CCO)N(c1cc(C#CC(C)(C)C)sc1C(=O)O)C(=O)[C@H]1CC[C@H](C)CC1 [Compound 37, 5-(3,3-Dimethylbut-1-ynyl)-3-[[(1S)-2-[2-hydroxyethyl(methyl)amino]-1-methyl-2-oxo-ethyl]-(trans-4-methylcyclohexanecarbonyl)amino]thiophene-2-carboxylic acid]",< 0.1 µM,> 100 µM,
"CC(C(=O)N(C)C)N(c1cc(C#CC(C)(C)C)sc1C(=O)O)C(=O)[C@H]1CC[C@H](C)CC1 (relative stereo) [Compound 7, 5-(3,3-Dimethyl-but-1-ynyl)-3-[(1-dimethylcarbamoyl-ethyl)-(trans-4-methyl-cyclohexanecarbonyl)-amino]-thiophene-2-carboxylic acid]",< 0.1 µM,10 to 100 µM,
"CN1CC(N(c2cc(C#CC(C)(C)C)sc2C(=O)O)C(=O)[C@H]2CC[C@H](C)CC2)CC1=O (relative stereo) [Compound 107, 5-(3,3-Dimethylbut-1-ynyl)-3-[(trans-4-methylcyclohexanecarbonyl)-(1-methyl-5-oxo-pyrrolidin-3-yl)amino]thiophene-2-carboxylic acid]",< 0.1 µM,> 100 µM,
"C[C@@H](C(=O)N1CC[C@@H](O)C1)N(c1cc(C#CC(C)(C)C)sc1C(=O)O)C(=O)[C@H]1CC[C@H](C)CC1 [Compound 32, 5-(3,3-Dimethylbut-1-ynyl)-3-[[(1S)-2-[(3R)-3-hydroxypyrrolidin-1-yl]-1-methyl-2-oxo-ethyl]-(trans-4-methylcyclohexanecarbonyl)amino]thiophene-2-carboxylic acid]",< 0.1 µM,> 100 µM,
"O=C(O)c1sc(-c2ccc(Oc3ccccc3)cc2)cc1N(CC(=O)N1CCOCC1)C(=O)c1ccc(Cl)cc1Cl [Compound 152, 3-[(2,4-dichlorobenzoyl)-(2-morpholino-2-oxo-ethyl)amino]-5-(4-phenoxyphenyl)thiophene-2-carboxylic acid]",,10 to 100 µM,1 to 10 µM
"C[C@@H](C(=O)N1CCCC(O)C1)N(c1cc(C#CC(C)(C)C)sc1C(=O)O)C(=O)[C@H]1CC[C@H](C)CC1 (stereo partly drawn) [Compound 54, 5-(3,3-Dimethylbut-1-ynyl)-3-[[(1S)-2-(3-hydroxy-1-piperidyl)-1-methyl-2-oxo-ethyl]-(trans-4-methylcyclohexanecarbonyl)amino]thiophene-2-carboxylic acid]",< 0.1 µM,> 100 µM,
"C[C@@H](O)[C@@H](C(=O)N1CCOCC1)N(c1cc(C#CC(C)(C)C)sc1C(=O)O)C(=O)[C@H]1CC[C@H](C)CC1 [Compound 60, 5-(3,3-Dimethylbut-1-ynyl)-3-[[(1S,2R)-2-hydroxy-1-(morpholine-4-carbonyl)propyl]-(trans-4-methylcyclohexanecarbonyl)amino]thiophene-2-carboxylic acid]",< 0.1 µM,> 100 µM,
"CC[C@@H](C(=O)N1CCOCC1)N(c1cc(-c2ccccc2)sc1C(=O)O)C(=O)[C@H]1CC[C@H](C)CC1 [Compound 126, 3-[(trans-4-methylcyclohexanecarbonyl)-[(1S)-1-(morpholine-4-carbonyl)propyl]amino]-5-phenyl-thiophene-2-carboxylic acid]",,> 100 µM,0.1 to 1 µM
"CC1COCCN1C(=O)[C@H](C)N(c1cc(C#CC(C)(C)C)sc1C(=O)O)C(=O)[C@H]1CC[C@H](C)CC1 (stereo partly drawn) [Compound 47, 5-(3,3-dimethylbut-1-ynyl)-3-[(trans-4-methylcyclohexanecarbonyl)-[(1S)-1-methyl-2-(3-methylmorpholin-4-yl)-2-oxo-ethyl]amino]thiophene-2-carboxylic acid]",< 0.1 µM,> 100 µM,
"CC[C@@H](C(=O)N1CCOCC1)N(c1cc(C#CC(C)C)sc1C(=O)O)C(=O)[C@H]1CC[C@H](C)CC1 [Compound 90, 5-(3-Methylbut-1-ynyl)-3-[(trans-4-methylcyclohexanecarbonyl)-[(1S)-1-(morpholine-4-carbonyl)propyl]amino]thiophene-2-carboxylic acid]",< 0.1 µM,> 100 µM,
C[C@@H](O)[C@@H](C(=O)N(C)C)N(c1cc(C#CC(C)(C)C)sc1C(=O)O)C(=O)[C@H]1CC[C@H](C)CC1 [Compound 59],< 0.1 µM,> 100 µM,
CC1CCC(C(=O)N(CCC(=O)N2CCOCC2)c2cc(C#CC(C)(C)C)sc2C(=O)O)CC1 (stereo not shown) [Compound 97],< 0.1 µM,> 100 µM,
"COC1CCCN(C(=O)[C@H](C)N(c2cc(C#CC(C)(C)C)sc2C(=O)O)C(=O)[C@H]2CC[C@H](C)CC2)C1 (stereo partly drawn) [Compound 40, 5-(3,3-Dimethylbut-1-ynyl)-3-[[(1S)-2-(3-methoxy-1-piperidyl)-1-methyl-2-oxo-ethyl]-(trans-4-methylcyclohexanecarbonyl)amino]thiophene-2-carboxylic acid]",< 0.1 µM,> 100 µM,
"C[C@@H](C(=O)N(C)C1CCOCC1)N(c1cc(C#CC(C)(C)C)sc1C(=O)O)C(=O)[C@H]1CC[C@H](C)CC1 [Compound 51, 5-(3,3-Dimethylbut-1-ynyl)-3-[(trans-4-methylcyclohexanecarbonyl)-[(1S)-1-methyl-2-[methyl(tetrahydropyran-4-yl)amino]-2-oxo-ethyl]amino]thiophene-2-carboxylic acid]",< 0.1 µM,> 100 µM,
"CC[C@@H](C(=O)N(C)C1CCN(C)CC1)N(c1cc(C#CC(C)(C)C)sc1C(=O)O)C(=O)[C@H]1CC[C@H](C)CC1 [Compound 76, 5-(3,3-Dimethylbut-1-ynyl)-3-[(trans-4-methylcyclohexanecarbonyl)-[(1S)-1-[methyl-(1-methyl-4-piperidyl)carbamoyl]propyl]amino]thiophene-2-carboxylic acid]",< 0.1 µM,10 to 100 µM,
"C[C@H](C(=O)N(C)C)N(c1cc(C#CC(C)(C)C)sc1C(=O)O)C(=O)[C@H]1CC[C@H](C)CC1 [Compound 2, 5-(3,3-Dimethyl-but-1-ynyl)-3-[((R)-1-dimethylcarbamoyl-ethyl)-(trans-4-methyl-cyclohexanecarbonyl)-amino]-thiophene-2-carboxylic acid]",< 0.1 µM,10 to 100 µM,
"C[C@@H](C(=O)N1CCOC(C)(C)C1)N(c1cc(C#CC(C)(C)C)sc1C(=O)O)C(=O)[C@H]1CC[C@H](C)CC1 [Compound 50, 5-(3,3-Dimethylbut-1-ynyl)-3-[[(1S)-2-(2,2-dimethylmorpholin-4-yl)-1-methyl-2-oxo-ethyl]-(trans-4-methylcyclohexanecarbonyl)amino]thiophene-2-carboxylic acid]",< 0.1 µM,> 100 µM,
"C[C@@H](CC(=O)N1CCN(C)CC1)N(c1cc(C#CC(C)(C)C)sc1C(=O)O)C(=O)[C@H]1CC[C@H](C)CC1 [Compound 110, 5-(3,3-Dimethylbut-1-ynyl)-3-[(trans-4-methylcyclohexanecarbonyl)-[(1S)-1-methyl-3-(4-methylpiperazin-1-yl)-3-oxo-propyl]amino]thiophene-2-carboxylic acid]",< 0.1 µM,> 100 µM,
"CCOC[C@@H](C(=O)N(C)C)N(c1cc(C#CC(C)(C)C)sc1C(=O)O)C(=O)[C@H]1CC[C@H](C)CC1 [Compound 88, 3-[[(1S)-2-(Dimethylamino)-1-(ethoxymethyl)-2-oxo-ethyl]-(trans-4-methylcyclohexanecarbonyl)amino]-5-(3,3-dimethylbut-1-ynyl)thiophene-2-carboxylic acid]",< 0.1 µM,> 100 µM,
"CN(C)C(=O)[C@H](CO)N(c1cc(C#CC(C)(C)C)sc1C(=O)O)C(=O)[C@H]1CC[C@H](C)CC1 [Compound 34, 3-[[(1S)-2-(dimethylamino)-1-(hydroxymethyl)-2-oxo-ethyl]-(trans-4-methylcyclohexanecarbonyl)amino]-5-(3,3-dimethylbut-1-ynyl)thiophene-2-carboxylic acid]",< 0.1 µM,> 100 µM,
"CC[C@H](C(=O)N1CCOCC1)N(c1cc(C#CC(C)(C)C)sc1C(=O)O)C(=O)[C@H]1CC[C@H](C)CC1 [Compound 122, 5-(3,3-dimethylbut-1-ynyl)-3-[(trans-4-methylcyclohexanecarbonyl)-[(1R)-1-(morpholine-4-carbonyl)propyl]amino]thiophene-2-carboxylic acid]",,> 100 µM,< 0.1 µM
"CC(C)[C@@H](C(=O)N(C)C)N(c1cc(C#CC(C)(C)C)sc1C(=O)O)C(=O)[C@H]1CC[C@H](C)CC1 [Compound 86, 5-(3,3-Dimethylbut-1-ynyl)-3-[[(1S)-1-(dimethylcarbamoyl)-2-methyl-propyl]-(trans-4-methylcyclohexanecarbonyl)amino]thiophene-2-carboxylic acid]",< 0.1 µM,10 to 100 µM,
"CC(CN(c1cc(C#CC(C)(C)C)sc1C(=O)O)C(=O)[C@H]1CC[C@H](C)CC1)C(=O)N1CCOCC1 (relative stereo) [Compound 104, 5-(3,3-Dimethylbut-1-ynyl)-3-[(trans-4-methylcyclohexanecarbonyl)-(2-methyl-3-morpholino-3-oxo-propyl)amino]thiophene-2-carboxylic acid]",< 0.1 µM,> 100 µM,
"CN1CCC[C@H](N(c2cc(C#CC(C)(C)C)sc2C(=O)O)C(=O)[C@H]2CC[C@H](C)CC2)C1=O [Compound 117, 5-(3,3-dimethylbut-1-yn-1-yl)-3-(trans-4-methyl-N—((S)-1-methyl-2-oxopiperidin-3-yl)cyclohexanecarboxamido)thiophene-2-carboxylic acid]",< 0.1 µM,> 100 µM,
CC(C)C#Cc1cc(N(CC(=O)N2CCNCC2)C(=O)C2CCC(C)CC2)c(C(=O)O)s1 (stereo not shown) [Compound 69],< 0.1 µM,> 100 µM,
